Here are results for 2 substances from publication PMC9221509, “Discovery of a Novel Antimicrobial Peptide, Temporin-PKE, from the Skin Secretion of Pelophylax kl. esculentus, and Evaluation of Its Structure-Activity Relationships” (Biomolecules, 2022).

The test system of this data set is wax moth larvae. Put plainly: Toxicity in wax moth larvae (uninfected). It is filed as in vivo, Galleria mellonella. The settings on record: n = 9 in each group. As for the experimental part:
The antimicrobial activities of temporin-PKE and temporin-PKE-3K, in vivo, were studied in the wax moth larvae model. Wax moth larvae (Livefood UK Ltd., Rooks Bridge, UK), weighing 250 ± 25 mg, were divided into different groups (n = 9 in each group). […] After 2 h of exposure, 10 µL of peptide solution, with concentrations of 4, 8, and 16 mg/kg, was injected into the larvae in each group. PBS was utilised as the negative control, and 50 mg/kg vancomycin was selected as the positive control for MRSA. The survival rates of the larvae were recorded every 12 h for 120 h.

No end group written: not given here.

For the substance FLPKIIGKLSSLLPKIF-NH2 [Temporin-PKE-3K], where the note is “doses of 16 mg/kg”, the “survival of larvae injected with peptide” value was “totally survived”.
For FLPLIIGALSSLLPKIF-NH2 [Temporin-PKE], the “mortality of larvae treated with peptide” value (highest test concentration, late stage) came out at 50%.
